Where two headings read alike, the source gives them in different places.
Legend:
Assay type in all cases: cell-based, human
[1] = test system: MV4;11 cells; test: Cell proliferation experiment (Alamar blue, 72 h), MV4;11; conditions: read-out: Inhibitory activity IC50 on MV4;11
Summary of the method: (§1)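 Alamar blue fluorescence after 72 h of compound exposure; IC50 from 4-parameter fit (Min, Max, Slope). Cells passaged ≥2 times, log-phase, 96-well, duplicate wells, 5-fold serial dilutions.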

[2] = test system: NCIH82 cells; test: Cell proliferation experiment, NCI-H82; conditions: Homo sapiens, NCI-H82, NCI-H82 cells; read-out: Inhibitory activity IC50 on NCI-H82
Summary of the method: as §1

[3] = test system: MDA-MB-231 cells; test: Cell proliferation experiment, MDA-MB-231; conditions: Homo sapiens
Description: (§2) Reagents: RPMI-1640 medium, McCoy's 5A medium, IMDM medium, MEM medium, L-15 medium, fetal bovine serum. Penicillin-Streptomycin double antibody, trypsin, etc., 2-mercaptoethanol, NEAA, pyruvate, etc.
(§3) The cells were cultured in conventional ways, and the cells should be passed at least 2 generations before plating. Cells at the logarithmic growth phase were collected, prepared into single cell suspensions and counted. The concentration of cells was adjusted to the desired concentration, and cells were inoculated into a 96-well cell culture plate at 100 μl per well. 100 μL of complete medium of the test compound were added to each well, set up 2 duplicate wells for each concentration, and diluted with a 5-fold gradient, and continued to culture for 72 h. All cells were subjected to IC50 test for corresponding samples. The experimental results are shown in Test Example 4.
(§4) The fluorescence intensity of each well was detected using the Alarm blue method, and IC50 was calculated.
(§5) IC50 was calculated according to the following formula:
(§6) Y=Max+(Min−Max)/[1+(X/IC50)×Slope]
(§7) wherein Min, Max and Slope represent the minimum, maximum and slope respectively.

[4] = test system: PC-3; test: Cell proliferation experiment, PC-3; conditions: Homo sapiens, PC-3, PC-3 cells; read-out: Inhibitory activity IC50 on PC-3
Description: as §2, §3, §4, §5, §6, §7

[5] = Homo sapiens, MV4-11, MV4;11 cells
[6] = MDA-MB-231, MDA-MB-231 cells, read-out: Inhibitory activity IC50 on MDA-MB-231
[7] = MDA-MB-231, read-out: Inhibitory activity IC50 on MDA-MB-231

| SMILES | IC50 [1, 5] | IC50 [2] | IC50 [3, 6] | IC50 [4] | IC50 ([1]; MV4;11 cells) | IC50 [3, 7] |
| --- | --- | --- | --- | --- | --- | --- |
| CNC(=O)c1ccccc1Nc1nc(Nc2ccc(N3CCN(C(=O)NCCOCC(O)COCCOCCC(=O)Nc4cccc5c4CN(C4CCC(=O)NC4=O)C5=O)CC3)cc2)ncc1Cl (centres unmarked) [UB-181079] | < 10 nM | 100 to 1000 nM | > 1000 nM | > 1000 nM | – | – |
| CNC(=O)c1ccccc1Nc1nc(Nc2ccc(N3CCN(C(=O)NCC(O)COCCOCCOCCC(=O)Nc4ccc5c(c4)CN(C4CCC(=O)NC4=O)C5=O)CC3)cc2)ncc1Cl (centres unmarked) [UB-181081] | 10 to 100 nM | > 1000 nM | > 1000 nM | > 1000 nM | – | – |
| CNC(=O)c1ccccc1Nc1nc(Nc2ccc(N3CCN(C(=O)NCC(O)COCCOCCOCCC(=O)Nc4cccc5c4CN(C4CCC(=O)NC4=O)C5=O)CC3)cc2)ncc1Cl (centres unmarked) [UB-181082] | 10 to 100 nM | > 1000 nM | > 1000 nM | > 1000 nM | – | – |
| CNC(=O)c1ccccc1Nc1nc(Nc2ccc(N3CCN(C(=O)NCCCOCC(=O)COCC#Cc4cccc5c4CN(C4CCC(=O)NC4=O)C5=O)CC3)cc2)ncc1Cl (centres unmarked) [UB-181083] | 10 to 100 nM | > 1000 nM | > 1000 nM | > 1000 nM | – | – |
| CNC(=O)c1ccccc1Nc1nc(Nc2ccc(N3CCN(C(=O)N[C@H]4CC[C@@H](NCCCOCCC#Cc5ccc6c(c5)CN(C5CCC(=O)NC5=O)C6=O)CC4)CC3)cc2)ncc1Cl (some centres unmarked) [UB-181084] | < 10 nM | 100 to 1000 nM | 100 to 1000 nM | 100 to 1000 nM | – | – |
| CNC(=O)c1ccccc1Nc1nc(Nc2ccc(N3CCN(C(=O)NCCOCC(COCCOCCC(=O)Nc4cccc5c4CN(C4CCC(=O)NC4=O)C5=O)NC)CC3)cc2)ncc1Cl (centres unmarked) [UB-181088] | < 10 nM | > 1000 nM | – | > 1000 nM | – | > 1000 nM |
| CNC(=O)c1ccccc1Nc1nc(Nc2ccc(N3CCN(C(=O)NCCOCC(COCCOCCC(=O)Nc4ccc5c(c4)CN(C4CCC(=O)NC4=O)C5=O)NC)CC3)cc2)ncc1Cl (centres unmarked) [UB-181090] | 10 to 100 nM | > 1000 nM | – | > 1000 nM | – | > 1000 nM |
| CNC(=O)c1ccccc1Nc1nc(Nc2ccc(N3CCN(C(=O)N[C@H]4CC[C@@H](NCCCOCCC(=O)Nc5cccc6c5CN(C5CCC(=O)NC5=O)C6=O)CC4)CC3)cc2)ncc1Cl (some centres unmarked) [UB-181092] | 10 to 100 nM | > 1000 nM | > 1000 nM | > 1000 nM | – | – |
| CNC(=O)c1ccccc1Nc1nc(Nc2ccc(N3CCN(C(=O)NCCCOCCCNCCC#Cc4ccc5c(c4)CN(C4CCC(=O)NC4=O)C5=O)CC3)cc2)ncc1Cl (centres unmarked) [UB-181094] | < 10 nM | 100 to 1000 nM | > 1000 nM | > 1000 nM | – | – |
| CNC(=O)c1ccccc1Nc1nc(Nc2ccc(N3CCN(C(=O)NCCCCOCCCCNCCC#Cc4ccc5c(c4)CN(C4CCC(=O)NC4=O)C5=O)CC3)cc2)ncc1Cl (centres unmarked) [UB-181095] | < 10 nM | 100 to 1000 nM | > 1000 nM | 100 to 1000 nM | – | – |
| CNC(=O)c1ccccc1Nc1nc(Nc2ccc(N3CCN(C(=O)N[C@H]4CC[C@@H](NCCCOCC#Cc5ccc6c(c5)CN(C5CCC(=O)NC5=O)C6=O)CC4)CC3)cc2)ncc1Cl (some centres unmarked) [UB-181096] | < 10 nM | 100 to 1000 nM | 100 to 1000 nM | 100 to 1000 nM | – | – |
| CNC(=O)c1ccccc1Nc1nc(Nc2ccc(N3CCN(C(=O)N[C@H]4C[C@H](NCCCOCCC#Cc5ccc6c(c5)CN(C5CCC(=O)NC5=O)C6=O)C4)CC3)cc2)ncc1Cl (some centres unmarked) [UB-181097] | 100 to 1000 nM | > 1000 nM | > 1000 nM | > 1000 nM | – | – |
| CNC(=O)c1ccccc1Nc1nc(Nc2ccc(N3CCN(C(=O)NCCCCOCCCCNC#Cc4cccc5c4CN(C4CCC(=O)NC4=O)C5=O)CC3)cc2)ncc1Cl (centres unmarked) [UB-181098] | < 10 nM | 10 to 100 nM | > 1000 nM | 100 to 1000 nM | – | – |

Second part, led by results:

| IC50 [1, 5] | IC50 [2] | IC50 [3, 6] | IC50 [4] | IC50 ([1]; MV4;11 cells) | SMILES | IC50 [3, 7] |
| --- | --- | --- | --- | --- | --- | --- |
| 10 to 100 nM | > 1000 nM | > 1000 nM | > 1000 nM | – | CNC(=O)c1ccccc1Nc1nc(Nc2ccc(N3CCN(C(=O)NCCOCCNCC(=O)Nc4ccc5c(c4)CN(C4CCC(=O)NC4=O)C5=O)CC3)cc2)ncc1Cl (centres unmarked) [UB-181069] | – |
| 10 to 100 nM | 100 to 1000 nM | 100 to 1000 nM | > 1000 nM | – | CNC(=O)c1ccccc1Nc1nc(Nc2ccc(N3CCN(C(=O)NCCCOCCCNCCC#Cc4cccc5c4CN(C4CCC(=O)NC4=O)C5=O)CC3)cc2)ncc1Cl (centres unmarked) [UB-181070] | – |
| 100 to 1000 nM | > 1000 nM | > 1000 nM | > 1000 nM | – | O=C1CCC(N2Cc3cc(NC(=O)COCCOCCOCC(O)Cn4cc(-c5ccc(Nc6ncc7c(n6)-c6ccc(Cl)cc6C(c6c(F)cccc6F)=NC7)cc5)nn4)ccc3C2=O)C(=O)N1 (centres unmarked) [UB-181071] | – |
| 100 to 1000 nM | > 1000 nM | > 1000 nM | > 1000 nM | – | O=C1CCC(N2Cc3c(NC(=O)COCCOCCOCC(O)Cn4cc(-c5ccc(Nc6ncc7c(n6)-c6ccc(Cl)cc6C(c6c(F)cccc6F)=NC7)cc5)nn4)cccc3C2=O)C(=O)N1 (centres unmarked) [UB-181072] | – |
| < 10 nM | > 1000 nM | > 1000 nM | > 1000 nM | – | CNC(=O)c1ccccc1Nc1nc(Nc2ccc(N3CCN(C(=O)NCCOCCOCC(N)COCCC(=O)Nc4cccc5c4CN(C4CCC(=O)NC4=O)C5=O)CC3)cc2)ncc1Cl (centres unmarked) [UB-181073] | – |
| 10 to 100 nM | > 1000 nM | > 1000 nM | > 1000 nM | – | CNC(=O)c1ccccc1Nc1nc(Nc2ccc(N3CCN(C(=O)NCCOCC(O)COCCOCCC(=O)Nc4ccc5c(c4)CN(C4CCC(=O)NC4=O)C5=O)CC3)cc2)ncc1Cl (centres unmarked) [UB-181074] | – |
| > 1000 nM | 100 to 1000 nM | > 1000 nM | > 1000 nM | – | O=C1CCC(N2Cc3cc(NC(=O)CCOCCOCCOCC(O)Cn4cc(-c5ccc(Nc6ncc7c(n6)-c6ccc(Cl)cc6C(c6c(F)cccc6F)=NC7)cc5)nn4)ccc3C2=O)C(=O)N1 (centres unmarked) [UB-181075] | – |
| – | > 1000 nM | > 1000 nM | > 1000 nM | 100 to 1000 nM | O=C1CCC(N2Cc3cc(NC(=O)CCOCCOCC(O)COCCn4cc(-c5ccc(Nc6ncc7c(n6)-c6ccc(Cl)cc6C(c6c(F)cccc6F)=NC7)cc5)nn4)ccc3C2=O)C(=O)N1 (centres unmarked) [UB-181077] | – |
| 10 to 100 nM | 100 to 1000 nM | > 1000 nM | > 1000 nM | – | CNC(=O)c1ccccc1Nc1nc(Nc2ccc(N3CCN(C(=O)NCCOCC(=O)COCCOCCC(=O)Nc4ccc5c(c4)CN(C4CCC(=O)NC4=O)C5=O)CC3)cc2)ncc1Cl (centres unmarked) [UB-181086] | – |
| < 10 nM | 100 to 1000 nM | > 1000 nM | 100 to 1000 nM | – | CNC(=O)c1ccccc1Nc1nc(Nc2ccc(N3CCN(C(=O)N[C@H]4CC[C@@H](NCCCOCCC#Cc5cccc6c5CN(C5CCC(=O)NC5=O)C6=O)CC4)CC3)cc2)ncc1Cl (some centres unmarked) [UB-181087] | – |
| < 10 nM | 100 to 1000 nM | 100 to 1000 nM | > 1000 nM | – | CNC(=O)c1ccccc1Nc1nc(Nc2ccc(N3CCN(C(=O)N[C@H]4CC[C@@H](NCCCOCC#Cc5cccc6c5CN(C5CCC(=O)NC5=O)C6=O)CC4)CC3)cc2)ncc1Cl (some centres unmarked) [UB-181091] | – |
| 10 to 100 nM | > 1000 nM | > 1000 nM | > 1000 nM | – | CNC(=O)c1ccccc1Nc1nc(Nc2ccc(N3CCN(C(=O)N[C@H]4CC[C@@H](NCCCOCCC(=O)Nc5ccc6c(c5)CN(C5CCC(=O)NC5=O)C6=O)CC4)CC3)cc2)ncc1Cl (some centres unmarked) [UB-181093] | – |
| 10 to 100 nM | 100 to 1000 nM | > 1000 nM | > 1000 nM | – | CNC(=O)c1ccccc1Nc1nc(Nc2ccc(N3CCN(C(=O)NC4CCC(NCCCCOCC(=O)Nc5ccc6c(c5)CN(C5CCC(=O)NC5=O)C6=O)CC4)CC3)cc2)ncc1Cl (centres unmarked) [UB-181109] | – |
